The record followed here is PubChem BioAssay AID1996.

≈ marks a conversion by molar mass, not a printed value.

The conditions of the series: buffer; pH 7.4; 200.0 µM.
`C[C@H](NS(=O)(=O)c1ccccc1F)C(=O)OCC(=O)Nc1ccc2c(c1)OCCO2` came in with a solubility (kinetic) of more than 65.8 µg/mL.
To `O=C(NN1C(=O)NC2(CCCCC2)C1=O)c1cc(F)cc(F)c1` belongs more than 48.5 µg/mL.
`Cc1ccc(NC(=O)Cc2ccsc2)cc1Cl` had a kinetic solubility of 4.6 µg/mL (≈ 17.3 µM).
For `CCOc1ccc(Nc2nc3ccccc3n2C)cc1`, the kinetic solubility was more than 40.1 µg/mL.
To `Cc1ccc(/C(O)=C2\C(=O)C(=O)N(C)C2c2cccc([N+](=O)[O-])c2)cc1` (stereo not given) belongs 51.5 µg/mL (≈ 146 µM); to `NC(=O)COc1ccccc1C(=O)NC12CC3CC(CC(C3)C1)C2`, 14.2 µg/mL (≈ 43.2 µM).
With `COc1cc(C(=O)NCc2cccs2)ccc1OCc1c(C)noc1C`, the solubility (kinetic) came out at 5.9 µg/mL (≈ 15.8 µM).
Take `COc1ccc(NC(=O)CS(=O)(=O)c2ccccc2Cl)cc1`: the kinetic solubility amounted to 43.8 µg/mL (≈ 129 µM).
Turning to `CCNCCNc1ccc([N+](=O)[O-])c2cccnc12`, the kinetic solubility was 36.4 µg/mL (≈ 140 µM).
The compound `O=C1Nc2ccccc2C(c2ccccc2)=NC1O` (stereo not given) displayed a solubility (kinetic) of more than 37.8 µg/mL.
Turning to `Cc1ccccc1C1NC(=S)NC2=C1C(=O)CC(C)(C)C2` (stereo not given), the kinetic solubility stood at 39.3 µg/mL (≈ 131 µM).
To `CCC(C(=O)OCC(=O)NC(=O)NC(C)(C)C)c1ccccc1` (stereo not given) belongs 2 µg/mL (≈ 6.24 µM); to `CCn1c(=O)c(C(=O)Nc2ncccc2O)c(O)c2ccccc21`, 0.9 µg/mL (≈ 2.77 µM).
Take `O=S(=O)(c1ccc(=S)[nH]c1)N1CCCCCC1`: the solubility (kinetic) stood at 32 µg/mL (≈ 117 µM).
For `O=C(CSc1cccc[n+]1[O-])N1CCc2ccccc21` the value was more than 43 µg/mL.
Compound `O=C(NCCc1csc(-c2cccnc2)n1)c1c(F)cccc1F` displayed a solubility (kinetic) of 48.9 µg/mL (≈ 142 µM).
For `CN1C(=O)C(CCC(N)=O)NC1=S` (stereo not given) the value was 29.1 µg/mL (≈ 145 µM).
In turn, `FC(F)(F)c1ccccc1CNCc1ccncc1` gave a kinetic solubility of 29.4 µg/mL (≈ 110 µM).
To `Cc1ccc(-c2csc3nc[nH]c(=O)c23)c(C)c1` belongs 2.4 µg/mL (≈ 9.36 µM); to `N#Cc1c(-c2ccc3c(c2)OCO3)cc[nH]c1=O`, 2.3 µg/mL (≈ 9.57 µM); to `CN1c2ccccc2C(=O)/C(=C\Nc2ccc(F)cc2F)S1(=O)=O`, 1 µg/mL (≈ 2.85 µM).
`CCOc1cccc(CN2CCC(CCC(=O)NC3CC3)CC2)c1O` showed a kinetic solubility of 44.4 µg/mL (≈ 128 µM).
For `COC(=O)Cc1ccc(Oc2ncc(C(F)(F)F)cc2Cl)cc1` the value was 8.5 µg/mL (≈ 24.6 µM).
For `CN(C)C(=O)c1cc(C(=O)c2ccccc2)c[nH]1` the value was more than 36.3 µg/mL.
To `CCN(C(=S)Nc1cccnc1)c1cccc2ccccc12` belongs 39.9 µg/mL (≈ 130 µM); to `Cc1ccccc1OC(C)C(=O)N1CCN(c2ccccn2)CC1` (stereo not given), more than 48.8 µg/mL.
As to `Cc1ccc(C)c(NC(=O)C2CCCN2C(=O)NC2CCCCC2)c1` (stereo not given), the kinetic solubility is 29 µg/mL (≈ 84.4 µM).
In turn, `CN(C(=O)CSc1cccc[n+]1[O-])c1ccccc1` had a solubility (kinetic) of 35.5 µg/mL (≈ 129 µM).
For `CCOc1ccccc1OCCN1CCCC1` the value was 24.1 µg/mL (≈ 102 µM); for `CC(=O)N[C@@H](Cc1c[nH]c2ccccc12)C(=O)OCc1cc(C(F)(F)F)cc(C(F)(F)F)c1`, 3.4 µg/mL (≈ 7.2 µM); for `CCn1c(/C=C2\C(=O)N(C(C)C)c3ccccc32)nc2ccccc2c1=O`, 22.2 µg/mL (≈ 61.8 µM).
To `CN(C)/C=C/C(=O)c1ccccc1` belongs more than 26.3 µg/mL.
To `O=C(O)c1ccc(S(=O)(=O)N2CCOCC2)o1` belongs 33.9 µg/mL (≈ 130 µM); to `Cc1c(C(=O)Nc2ccccc2)cc(-c2ccccc2)n1CCCN1CCOCC1`, 36.8 µg/mL (≈ 91.2 µM).
Regarding `O=S(=O)(NOCc1ccc(Cl)cc1)c1ccc(Cl)cc1`, the solubility (kinetic) was less than 0.7 µg/mL.
For `Cc1ccc(NC(=O)Cn2cnc([N+](=O)[O-])c2)cc1C` the value was more than 41.1 µg/mL; for `Cc1ccccc1-c1nc2cc(NC(=O)C3CC3)ccc2o1`, 0.8 µg/mL (≈ 2.74 µM); for `COc1ccc2[nH]cc(CCN(C)C)c2c1`, more than 32.7 µg/mL.
Turning to `CC1=C(C(=O)OCC2CCCCC2)C(c2ccc(O)cc2)NC(=O)N1` (stereo not given), the solubility (kinetic) is 3.4 µg/mL (≈ 9.87 µM).
To `Cc1cc(Cl)ccc1OCC(=O)Nc1cccnc1` belongs 35.3 µg/mL (≈ 128 µM).
Compound `O=C1c2cccnc2C(=O)N1c1cccc([N+](=O)[O-])c1` had a solubility (kinetic) of more than 40.4 µg/mL.
For `O=C(COC(=O)CCc1ccccc1)NCc1ccc2c(c1)OCO2` the value was more than 51.2 µg/mL; for `COC(=O)c1ccc(NC(=O)Nc2ccc3c(c2)OCO3)cc1`, 0.8 µg/mL (≈ 2.55 µM).
To `Cc1ccc(-c2nc3ncccc3o2)cc1NC(=O)c1cccnc1` belongs 7.6 µg/mL (≈ 23 µM).
To `N/C(=N\OC(=O)CC1CCCCC1)c1ccc(Cl)cc1` belongs 0.9 µg/mL (≈ 3.05 µM).
In turn, `CSc1ncc(C(=O)Nc2ccccc2C)c(C)n1` showed a kinetic solubility of more than 41 µg/mL.
Take `Cc1ccc2c(c1)N(CC(=O)N1CCCCC1)C(=O)C(C)O2` (stereo not given): the solubility (kinetic) was more than 45.4 µg/mL.
To `COC(=O)c1c(C)[nH]c(C(=O)C(C)OC(=O)C2CC2C)c1C` (stereo not given) belongs more than 46.1 µg/mL; to `NC(=O)c1ccc(SCC(=O)NC2CCCCC2)c([N+](=O)[O-])c1`, 14.7 µg/mL (≈ 43.6 µM).
To `CC(=O)NC1CCN(CC(=O)Nc2nccs2)CC1` belongs 40.5 µg/mL (≈ 143 µM); to `COc1ccc(C=C(C#N)C#N)c(CSc2ccccn2)c1`, 2.1 µg/mL (≈ 6.83 µM).
For `Nc1nc(SCC(=O)Nc2cccc([N+](=O)[O-])c2)n[nH]1` the value was more than 44.1 µg/mL.
Compound `Cc1cc(C(=O)COC(=O)/C=C/c2ccco2)c(C)n1C` had a solubility (kinetic) of 12.9 µg/mL (≈ 44.9 µM).
The compound `CCCCc1nc2cc(C(=O)N3CCCC3)ccc2o1` yielded a kinetic solubility of more than 40.9 µg/mL.
For `CC(NC(=O)Cn1cccc1)c1ccccc1` (stereo not given) the value was more than 34.2 µg/mL; for `Cc1ccc(NC(=S)NCCc2ccccc2)nc1`, less than 0.2 µg/mL.
For `COc1ccc(NC(=S)NCCCN2CCCC2)cc1Cl` the value was more than 49.2 µg/mL.
To `Cc1cccc(C(=O)N2CCCC(c3nc(-c4ccc(F)cc4)no3)C2)c1` (stereo not given) belongs 12.4 µg/mL (≈ 33.9 µM).
Regarding `COc1ccc(S(=O)(=O)N2CCN3CCCC3C2)cc1` (stereo not given), the kinetic solubility was found to be 41.8 µg/mL (≈ 141 µM).
For the compound `N#Cc1c(F)cccc1N1CCN(Cc2ccc3c(c2)OCO3)CC1`, the solubility (kinetic) stood at 14.6 µg/mL (≈ 43 µM).
For `CSc1ccc(/C=C/C(=O)OCC(=O)N(C)CCC#N)cc1` the value was 29.9 µg/mL (≈ 93.9 µM).
For the compound `N#Cc1ccccc1Oc1ccccc1C=O`, the kinetic solubility turned out to be 31.6 µg/mL (≈ 142 µM).
`CCOc1ncccc1C(=O)OCC(=O)c1ccccc1` registered a kinetic solubility of 39.9 µg/mL (≈ 140 µM).
For `Cc1c(C(=O)C(=O)NCc2ccco2)c2ccccc2n1C` the value was more than 44.4 µg/mL; for `O=c1[nH]sc2cc(F)ccc12`, 22.7 µg/mL (≈ 134 µM).
To `Clc1cccc(OCCCCN2CCCCC2)c1` belongs 31 µg/mL (≈ 116 µM); to `CC1CCCN(C(=O)COc2ccc3c(c2)OCO3)C1` (stereo not given), more than 41.6 µg/mL.
Regarding `Cc1cc(C)cc(-n2c(C)nc3cc(C(=O)O)ccc32)c1`, the kinetic solubility worked out at 35 µg/mL (≈ 125 µM).
For `Cc1ccc(S(N)(=O)=O)c(C)c1N1CCCC1=O` the value was more than 40.2 µg/mL; for `Cc1ccccc1NC(=S)N1CCN(c2ccccc2)CC1`, 0.6 µg/mL (≈ 1.93 µM).
The compound `O=C(NCc1ccccc1F)c1ccc2ccccc2n1` returned a solubility (kinetic) of 20.9 µg/mL (≈ 74.6 µM).
Turning to `O=C(NCc1ccccc1)c1ccc(CSc2ccccc2)o1`, the kinetic solubility came out at 11.1 µg/mL (≈ 34.3 µM).
For `CN(C)C(=O)c1cc(C(=O)Cc2ccccc2)c[nH]1` the value was 37.7 µg/mL (≈ 147 µM); for `CCC1(C)Cc2ccccc2-c2nc[nH]c(=O)c21` (stereo not given), 2.8 µg/mL (≈ 11.7 µM); for `C=CCN1C2CCCC1CC(NC(=S)Nc1ccc(Cl)cc1)C2` (stereo not given), more than 52.5 µg/mL.
To `Cc1cc(C)cc(N2C(=O)CC(Sc3ccccc3C(=O)O)C2=O)c1` (stereo not given) belongs 52.4 µg/mL (≈ 147 µM); to `O=C(Cc1ccc(S(=O)(=O)N2CCCC2)s1)Nc1cccc([N+](=O)[O-])c1`, 20.7 µg/mL (≈ 52.3 µM).
To `CC(=O)NO` belongs less than 0.2 µg/mL.
In turn, `O=C(CCSc1nc2ccccc2o1)Nc1ccccc1` showed a kinetic solubility of 4.2 µg/mL (≈ 14.1 µM).
The compound `Cc1ccc(NC(=O)CSc2nccn2Cc2ccco2)c(C)c1` yielded a solubility (kinetic) of 46.8 µg/mL (≈ 137 µM).
`CSc1ccccc1NC(=O)C1CCCN(S(C)(=O)=O)C1` (stereo not given) displayed a solubility (kinetic) of more than 49.3 µg/mL.
`CCc1nnc(NC(=O)CN2C(=O)NC3(CC(C)CC(C)(C)C3)C2=O)s1` (stereo not given) returned a kinetic solubility of more than 56.9 µg/mL.
In the case of `O=C(NCCc1ccc(Cl)cc1)C1CCN(c2ncccn2)CC1`, the kinetic solubility stood at 6.7 µg/mL (≈ 19.4 µM).
In the case of `Nc1nc(Nc2ccccc2)nc(N2CCCC2)c1[N+](=O)[O-]`, the solubility (kinetic) was 27.6 µg/mL (≈ 91.9 µM).
To `COc1ccc(-n2ccc3ccccc32)cc1` belongs less than 0.5 µg/mL.
For `Cl.Clc1ccc(CNCCCSc2ncccn2)cc1` the value was more than 49.5 µg/mL; for `CCOc1ccc(Br)cc1S(=O)(=O)Nc1cccnc1`, 1.4 µg/mL (≈ 3.92 µM); for `O=C(O)c1ccc(N2C(=O)CSC2=S)cc1`, more than 38 µg/mL.
`CC(C)C(NC(=O)c1ccc(Cl)cc1Cl)C(=O)N1CCN(S(=O)(=O)c2ccccc2)CC1` (stereo not given) returned a solubility (kinetic) of 2 µg/mL (≈ 4.01 µM).
To `O=C(Nc1ccc(N2CCOCC2)cc1)c1ccc([N+](=O)[O-])o1` belongs 13.2 µg/mL (≈ 41.6 µM); to `Cn1c(-c2cccs2)[n+](C)c2ccccc21.[Cl-]`, more than 39.7 µg/mL; to `O=C(NCC(O)c1ccc([N+](=O)[O-])cc1)Nc1ccccc1` (stereo not given), 42 µg/mL (≈ 139 µM).
To `CN(C)c1nc2ncn(Cc3ccccc3)c2c(=O)[nH]1` belongs more than 40.4 µg/mL.
For `CCN(C(=O)Cc1c(C(=O)O)[nH]c2ccccc12)c1ccc(OC)cc1` the value was more than 52.9 µg/mL; for `O=C(Nc1ccc(N2CCOCC2)cc1)c1c(F)cccc1Cl`, 21.3 µg/mL (≈ 63.6 µM).
In the case of `CC(C)Oc1ccc(CC2(CCc3ccncc3)C(=O)NC(=O)NC2=O)cc1`, the solubility (kinetic) is 7.7 µg/mL (≈ 20.2 µM).
To `Cc1ccc(C)c(NC(=O)c2cnccn2)c1` belongs 23.9 µg/mL (≈ 105 µM); to `COC(=O)c1cc(COC(=O)CNC(=O)c2ccc(Br)cc2)oc1C`, 6.8 µg/mL (≈ 16.6 µM).
For `CC(=O)CC(CC(=O)NC1CCCCC1)c1ccccc1` (stereo not given) the value was more than 43.1 µg/mL; for `Cc1cccc(NC(=O)CCC(=O)N2CCOCC2)n1`, more than 41.6 µg/mL.
In turn, `O=C(NCc1ccccn1)Nc1ccccc1F` yielded a solubility (kinetic) of more than 36.8 µg/mL.
As to `CC(=O)Nc1cccc(NC(=S)Nc2cccc(Cl)c2C)c1`, the kinetic solubility came to 44.9 µg/mL (≈ 134 µM).
To `O=C(Nc1ncc2c(n1)-c1ccccc1OC2)c1cccc([N+](=O)[O-])c1` belongs 1.4 µg/mL (≈ 4.02 µM).
To `CN(C)CCNC(=O)COc1cccc2c1OC(C)(C)C2` belongs more than 43.9 µg/mL; to `C/C=C/c1ccc(OCC(=O)Nc2ccncc2)c(OC)c1`, 42.1 µg/mL (≈ 141 µM).
